According to US20150225369A1, “DDR2 INHIBITORS FOR THE TREATMENT OF OSTEOARTHRITIS” (Merck Patent GmbH, priority 2012, published 2015):
Read-outs that look alike come from different tables or passages of the source.

What was measured:
[1] = biological target: T1, His-tagged human recombinant DDR-2 kinase domain (His-TEV-DDR2 467-855 aa) (Homo sapiens, UniProt Q16832); test: Autophosphorylation assay for biochemical activity testing of DDR2 (HTRF)
T1 construct: His-TEV-DDR2 467-855 aa
T1 sequence (Q16832 467-855): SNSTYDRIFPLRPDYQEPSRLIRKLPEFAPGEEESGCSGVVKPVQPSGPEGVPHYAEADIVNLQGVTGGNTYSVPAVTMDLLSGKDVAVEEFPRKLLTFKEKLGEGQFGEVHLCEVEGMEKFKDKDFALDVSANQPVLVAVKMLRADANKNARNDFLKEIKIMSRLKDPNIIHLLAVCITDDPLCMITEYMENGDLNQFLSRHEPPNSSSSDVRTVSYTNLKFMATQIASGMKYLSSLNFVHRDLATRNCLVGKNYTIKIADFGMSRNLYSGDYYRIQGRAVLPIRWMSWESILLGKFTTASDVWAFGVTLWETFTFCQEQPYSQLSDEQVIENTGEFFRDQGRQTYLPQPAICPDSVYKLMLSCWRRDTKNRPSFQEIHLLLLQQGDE
How it was run: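 Phospho-tyrosine was detected by HTRF between XL665 anti-6His and cryptate anti-phosphotyrosine PT66 antibodies, using the emission ratio. Inhibition was referenced to the inhibitor-free reaction.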

[2] = biological target: T2, HEK293 transfected with human DDR2 (Homo sapiens, UniProt Q16832); test: Phospho-DDR2 cellular assay (collagen II induced DDR2 phosphorylation, ELISA); assay type: cell-based; details: read-out: IC50 [p-DDR2]
T2 construct: expressed in transfected cells; host or cells: HEK293 (PLT460F_(DDR2)-P7-1)
T2 sequence (Q16832 22-855): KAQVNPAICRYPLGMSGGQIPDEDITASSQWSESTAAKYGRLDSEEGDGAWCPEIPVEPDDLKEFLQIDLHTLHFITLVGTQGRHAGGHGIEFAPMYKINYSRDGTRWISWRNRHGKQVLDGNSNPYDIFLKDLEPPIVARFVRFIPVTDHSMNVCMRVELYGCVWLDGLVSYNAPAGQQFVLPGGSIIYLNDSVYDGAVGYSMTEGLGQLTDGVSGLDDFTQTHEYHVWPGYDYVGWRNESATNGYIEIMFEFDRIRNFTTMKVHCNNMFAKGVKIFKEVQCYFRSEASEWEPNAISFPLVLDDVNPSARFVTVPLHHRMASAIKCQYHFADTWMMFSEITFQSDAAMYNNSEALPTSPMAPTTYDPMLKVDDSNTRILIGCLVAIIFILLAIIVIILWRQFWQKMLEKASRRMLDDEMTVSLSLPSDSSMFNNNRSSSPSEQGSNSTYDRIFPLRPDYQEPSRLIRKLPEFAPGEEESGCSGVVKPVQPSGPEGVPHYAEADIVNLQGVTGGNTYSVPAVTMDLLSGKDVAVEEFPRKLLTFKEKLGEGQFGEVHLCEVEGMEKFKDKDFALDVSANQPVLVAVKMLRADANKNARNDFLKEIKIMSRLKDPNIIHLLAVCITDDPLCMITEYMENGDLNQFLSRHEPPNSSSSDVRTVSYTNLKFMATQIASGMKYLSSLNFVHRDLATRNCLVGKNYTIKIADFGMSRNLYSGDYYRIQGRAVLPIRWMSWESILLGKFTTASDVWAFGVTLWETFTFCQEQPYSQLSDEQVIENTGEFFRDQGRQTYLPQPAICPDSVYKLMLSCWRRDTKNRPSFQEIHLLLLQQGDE
How it was run: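 Cells seeded 48 h in 10% FBS, serum-starved 8 h, then given compound (5% DMSO) with 50 μg/ml chicken collagen II for 16 h at 37 °C. Lysates captured on anti-DDR2 antibody plates; phospho-DDR2 detected with HRP anti-phosphotyrosine antibody by chemiluminescence.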

[3] = biochemical DDR2 autophosphorylation
[4] = 4 nM DDR2 kinase domain, 150 μM ATP, 150 min at 22° C.
[5] = HEK293 transfected with human DDR2, 50 μg/ml chicken collagen II, 16 h

Structure (SMILES)	IC50 [1, 3] [µM]	IC50 ([2]; cellular phospho-DDR2) [µM]	IC50 [1, 4] [µM]	IC50 [2, 5] [µM]
CNC(=O)c1cc(Oc2ccc(CNC(=O)Nc3ccnc(Cl)c3)cc2)ccn1 [compound 89, 4-{4-[3-(2-Chloro-pyridin-4-yl)-ureidomethyl]-phenoxy}-pyridine-2-carboxylic acid methylamide]	1	1.45	–	–
CNCCOc1ccc(C)cc1NC(=O)NCc1ccc(Oc2ccnc(C(=O)NC)c2)cc1 [compound 170, 4-(4-{3-[5-Methyl-2-(2-methylamino-ethoxy)-phenyl]-ureidomethyl}-phenoxy)-pyridine-2-carboxylic acid methylamide]	0.31	0.195	–	–
CNC(=O)c1cc(Oc2ccc(CNC(=O)Nc3cc(C(F)(F)F)c(Cl)cc3OCCCN)cc2)ccn1 [compound 191, 4-(4-{3-[2-(3-Amino-propoxy)-4-chloro-5-trifluoromethyl-phenyl]-ureidomethyl}-phenoxy)-pyridine-2-carboxylic acid methylamide]	0.59	0.106	–	–
CNC(=O)c1cc(Oc2ccc(CNC(=O)Nc3cc(Cl)c(C)cc3OC)cc2)ccn1 [compound 66, 4-{4-[3-(5-Chloro-2-methoxy-4-methyl-phenyl)-ureidomethyl]-phenoxy}-pyridine-2-carboxylic acid methylamide]	0.055	0.009	–	–
CNCCOc1ccc(C(F)(F)F)cc1NC(=O)NCc1ccc(Oc2ccnc(C(=O)NC)c2)c(C)c1 [compound 146, 4-(2-Methyl-4-{3-[2-(2-methylamino-ethoxy)-5-trifluoromethyl-phenyl]-ureidomethyl}-phenoxy)-pyridine-2-carboxylic acid methylamide]	0.033	0.015	–	–
CNC(=O)c1cc(Oc2ccc(CNC(=O)Nc3cc(C)c(Cl)cc3OCCN)cc2C)ccn1 [compound 144, 4-(4-{3-[2-(2-Amino-ethoxy)-4-chloro-5-methyl-phenyl]-ureidomethyl}-2-methyl-phenoxy)-pyridine-2-carboxylic acid methylamide]	0.049	0.053	–	–
CNC(=O)c1cc(Oc2ccc(CNC(=O)Nc3cc(Cl)c(C)cc3OC3CCNCC3)cc2)ccn1 [compound 178, 4-(4-{3-[5-Chloro-4-methyl-2-(piperidin-4-yloxy)-phenyl]-ureidomethyl}-phenoxy)-pyridine-2-carboxylic acid methylamide]	0.035	0.025	–	–
CNC(=O)c1cc(Oc2ccc(CNC(=O)Nc3cc(Cl)c(C)cc3OCCNC(C)C)cc2)ccn1 [compound 183, 4-(4-{3-[5-Chloro-2-(2-isopropylamino-ethoxy)-4-methyl-phenyl]-ureidomethyl}-phenoxy)-pyridine-2-carboxylic acid methylamide]	0.089	0.035	–	–
CNC(=O)c1cc(Oc2ccc(CNC(=O)Nc3cc(C)c(Cl)cc3OCCCN(C)C)cc2C)ccn1 [compound 163, 4-(4-{3-[4-Chloro-2-(3-dimethylamino-propoxy)-5-methyl-phenyl]-ureidomethyl}-2-methyl-phenoxy)-pyridine-2-carboxylic acid methylamide]	0.04	0.016	–	–
CNC(=O)c1cc(Oc2ccc(CNC(=O)Nc3cc(C)c(Cl)cc3OCCN3CCOCC3)cc2)ccn1 [compound 110, 4-(4-{3-[4-Chloro-5-methyl-2-(2-morpholin-4-yl-ethoxy)-phenyl]-ureidomethyl}-phenoxy)-pyridine-2-carboxylic acid methylamide]	0.29	0.13	–	–
CNC(=O)c1cc(Oc2ccc(C(C)NC(=O)Nc3cc(Cl)ccc3OC)cc2)ccn1 (stereo not drawn) [compound 72, 4-(4-{1-[3-(5-Chloro-2-methoxy-phenyl)-ureido]-ethyl}-phenoxy)-pyridine-2-carboxylic acid methylamide]	0.34	0.074	–	–
CNC(=O)c1cc(Oc2ccc(CNC(=O)Nc3cc(Cl)c(C)cc3OCCN(C)C)cc2)ccn1 [compound 174, 4-(4-{3-[5-Chloro-2-(2-dimethylamino-ethoxy)-4-methyl-phenyl]-ureidomethyl}-phenoxy)-pyridine-2-carboxylic acid methylamide]	0.14	0.028	–	–
CNCCOc1ccc(S(=O)(=O)C(F)(F)F)cc1NC(=O)NCc1ccc(Oc2ccnc(C(=O)NC)c2)c(C)c1 [compound 189, 4-(2-Methyl-4-{3-[2-(2-methylamino-ethoxy)-5-trifluoromethanesulfonyl-phenyl]-ureidomethyl}-phenoxy)-pyridine-2-carboxylic acid methylamide]	0.27	0.115	–	–
CNC(=O)c1cc(Oc2ccc(CNC(=O)Nc3cc(Cl)c(C)cc3OCC(C)(C)N)cc2)ccn1 [compound 185, 4-(4-{3-[2-(2-Amino-2-methyl-propoxy)-5-chloro-4-methyl-phenyl]-ureidomethyl}-phenoxy)-pyridine-2-carboxylic acid methylamide]	0.46	0.175	–	–
CNCCOc1cc(Cl)c(C)cc1NC(=O)NCc1ccc(Oc2ccnc(C(=O)NC)c2)c(C)c1 [compound 141, 4-(4-{3-[4-Chloro-5-methyl-2-(2-methylamino-ethoxy)-phenyl]-ureidomethyl}-2-methyl-phenoxy)-pyridine-2-carboxylic acid methylamide]	0.043	0.025	–	–
CNC(=O)c1cc(Oc2ccc(CNC(=O)Nc3c(OC)cc(Cl)c(C)c3Cl)cc2)ccn1 [compound 103, 4-{4-[3-(2,4-Dichloro-6-methoxy-3-methyl-phenyl)-ureidomethyl]-phenoxy}-pyridine-2-carboxylic acid methylamide]	14	4.6	–	–
CNC(=O)c1cc(Oc2ccc(CNC(=O)Nc3cc(OC)c(Cl)cc3OC)cc2)ccn1 [compound 83, 4-{4-[3-(4-Chloro-2,5-dimethoxy-phenyl)-ureidomethyl]-phenoxy}-pyridine-2-carboxylic acid methylamide]	0.76	0.14	–	–
CNC(=O)c1cc(Oc2ccc(CNC(=O)Nc3cc(C)cnc3Cl)cc2C)ccn1 [compound 25]	–	–	0.41	0.087
CNCCOc1cc(C)c(Cl)cc1NC(=O)NCc1ccc(Oc2ccnc(C(=O)NC)c2)cc1 [compound 177, 4-(4-{3-[5-Chloro-4-methyl-2-(2-methylamino-ethoxy)-phenyl]-ureidomethyl}-phenoxy)-pyridine-2-carboxylic acid methylamide]	0.074	0.027	–	–
CNC(=O)c1cc(Oc2ccc(CNC(=O)Nc3cc(C)ccn3)cc2C)ccn1 [compound 213, 4-{2-Methyl-4-[3-(4-methyl-pyridin-2-yl)-ureidomethyl]-phenoxy}-pyridine-2-carboxylic acid methylamide]	0.4	0.205	–	–
CNC(=O)c1cc(Oc2ccc(CNC(=O)Nc3cc(C)cnc3OC)cc2C)ccn1 [compound 20]	–	–	0.11	0.041
